# Assay results published in US9796907B2, “Invert emulsion gravel pack fluid and method” (Halliburton Energy Services, Inc., priority 2013, dated 2017).
# System: marine juvenile fish Cyprinodont varieties
# Experiment: Ecotoxicity to marine juvenile fish
# Assay type: in vivo
# Text: In addition, the fluid of the disclosure should have an acceptable health, safety, and environmental profile. The dimer diamine (or fatty acid dimer diamine) and polyurea components comprising the suspension agent are environmentally compatible.
smiles,measurement,value
"CCCCCCCCCC(CCCCCCCCN)C(CCCCCCCC)CCCCCCCCCN (stereo not shown) [fatty acid dimer diamine, C36 fatty dimer diamine]",ecotoxicity to marine juvenile fish,low ecotoxicity
